In the NIST ThermoML archive (doi:10.1021/acs.jced.9b00780):
± gives the expanded uncertainty stated by the source.

Experiments:
[1] = refractive index (Na D-line) (dimensionless); wn = mass fraction of the nth substance listed; details: 298.15 K, 100 kPa, Liquid, Standard Abbe refractometry
[2] = wn = mass fraction of the nth substance listed; details: 298.15 K, 100 kPa, Liquid, Vibrating tube method

| refractive index ([1]; w1 = 0.2259) | mass density ([2]; w1 = 0.2259) | Structure (SMILES) | refractive index ([1]; w1 = 0.0308) | mass density ([2]; w1 = 0.0308) |
| --- | --- | --- | --- | --- |
| 1.3872 ± 0.0033 | 1267.8 ± 6.2 kg/m3 | O=B[O-].[Na+] [sodium metaborate] + O | – | – |
| – | – | O=BOB([O-])OB([O-])OB=O.[Na+].[Na+] [sodium tetraborate] + O | 1.339 ± 0.003 | 1025.65 ± 0.63 kg/m3 |
